Patent US5474988A, “5-phenylpyrrolo-1,4-benzoxazine and 5-phenylpyrrolo-1,4-benzothiazine compounds, process and intermediates for their production and pharmaceutical compositions containing them” (Kali-Chemie Pharma GmbH, priority 1993, dated 1995)

Columns and labels:
[1] = test system: P.A.F.-induced aggregation of blood platelets; test: anti-P.A.F. action in vitro (P.A.F.-induced platelet aggregation); assay type: cell-based; settings: Oryctolagus cuniculus, 10^-5 mole/liter, read-out: Anti-P.A.F. activity in vitro, % inhibition of the P.A.F.-induced aggregation of blood platelets from rabbit blood
Source text: 3. Determination of the anti-P.A.F. action in vitro.
P.A.F. (=Platelet Activating Factor=Platelet Aggregation Factor) is a phospholipid mediator which has a multiplicity of actions. The activation of blood platelet aggregation results in the induction of long-lasting bronchoconstrictions and hyperreactivity of the respiratory passages.
In this test, the effect of the test substances on platelet aggregation induced by addition of P.A.F. in a platelet suspension obtained from rabbit blood was investigated according to the method described by Mikashima et al. (Jap. J. Pharmacol. 44 (1987) 387-391).
A suspension of platelets obtained from rabbit blood was used which contains 4×10^9 platelets/ml in a modified Tyrode buffer solution (=Tyrode solution with the addition of 1.3 mM/l of CaCl2 and 2.5 g/l of gelatine) adjusted to pH 7.4. Tyrode solution is an aqueous solution containing, per liter, 136.9 mmole of NaCl, 2.68 mmole of KCl, 2.31 mmole of CaCl2, 1.0 mmole of MgCl2, 11.9 mmole of NaHCO3, 1.45 mmole of NaH2 PO4 and 5.55 mmole of glucose. The platelets were concentrated from 10 ml blood samples of three rabbits (New Zealand hybrids, body weight 3-4 kg) in each case. To accomplish this, the blood samples were treated with ethylenediaminetetraacetic acid and washed according to the method of Artley et al. (Brit. J. Haematol. 19 (1970), 7-17). A platelet-rich plasma was first separated by centrifugation (20 minutes at 400×g). The platelets were separated from the plasma by repeated centrifugation for 15 minutes at 1400×g.After the centrifugation, the blood platelets remaining in the sediment were resuspended in a Tyrode buffer solution (but without calcium). 0.4 mmole of lysine acetylsalicylate was then added, and the blood platelets were sedimented again after 15 minutes. The sediment was resuspended in the aforementioned modified Tyrode buffer solution, and the number of platelets in the suspension obtained was adjusted to the desired content.
A 40×10^-9 molar P.A.F. solution was employed as a reagent. This solution was prepared from a 1.8×10^-3 molar stock solution in chloroform. To do this, a 10 μl sample of the stock solution was evaporated to dryness and dissolved again in 180 μl of the modified Tyrode buffer solution, to which 0.25% of lipid-free bovine serum albumin had been added. 10^-5 molar working solutions were then prepared from this and stored frozen. Samples of these solutions were appropriately diluted for tests.
In order to carry out the test, 50 μl of the blood platelet suspension and 10 μl of a 40×10^-5 molar solution of the compound to be investigated were added to […] of the modified Tyrode buffer solution with stirring (1000 rpm) in an aggregation tube provided with a small magnetic stirrer. This corresponded to a final test substance concentration of 10^-5 mole/l. After a preincubation time of 90 seconds, 10 μl of the P.A.F. preparation were added. For 4-5 minutes, the aggregation occurring in the aggregation tube was measured by means of a computerized aggregometer.
The aggregation occurring in the test tubes containing only the platelet suspension is rated as 0%. The aggregation occurring in the test tubes containing platelet suspension and P.A.F. preparation, in which a P.A.F.-induced increase in platelet aggregation takes place, is rated as 100%. The aggregation still occurring after addition of the test substances is measured, and from this the inhibition of the P.A.F.-inducedincrease in aggregation which takes place is calculated in %.

male mice = settings: mouse, in vivo, po, 1440 min
Procedure: 2. Determination of the minimum toxic dose.
Maximum doses of 300 mg/kg of the test substance were administered orally to male mice each weighing 20-25 g. The animals were carefully observed for symptoms of toxicity for 3 hours. All symptoms and deaths were additionally recorded over a period of 24 hours after administration. Associated symptoms were likewise observed and recorded. If death or severely toxic symptoms were observed, increasingly lower doses were administered to further mice. The lowest dose which caused death or severely toxic symptoms is indicated as the minimum toxic dose in the following Table B: […]

5-lipoxygenase [2] = test: inhibition of 5-lipoxygenase activity in polymorphonuclear rat leucocytes (LTB4 formation); assay type: cell-based; settings: 10^-5 mol/l; 22° C.
Source text: 4. In vitro determination of 5-lipoxygenase inhibition. 4a. In vitro determination of inhibition of 5-lipoxygenase activity in polymorphonuclear rat leucocytes. Arachidonic acid contained in cell membranes is released after activiation of the polymorphonuclear leucocytes (=PMN). During the course of this, under the action of the enzyme 5-lipoxygenase (=5-LO) arachidonic acid metabolites are synthesized which can be converted to leucotriene B4 (=LTB4) by LTA4 hydrolase. LTB4 is a principal metabolite of the arachidonic acid metabolism taking place on activation of the enzyme 5-LO by the inflammatory stimulus in the cell membrane. In in vitro systems, this metabolite is secreted from PMNs. […] To accomplish this, the content of LTB4 in a culture medium of rat peritoneal PMNs was determined after stimulation by calcimycin (=calcium-ionophore A23187) such as described by […] et al., Can. J. Physiol. Pharmacol. 67 (1989), 17. A cell suspension containing peritoneal PMNs of male Sprague-Dawley rats (body weight 200 to 250 g) was obtained in a known manner as follows: 6 ml of a solution containing 27.9 g/l of sodium thioglycolate were injected i.p. into the animals in order to induce the PMN invasion due to this inflammatory stimulus. After 22 hours, the animals were sacrificed by means of lethal ether anaesthesia. 20 ml of a Hank's salt solution (=Hank's Balanced Salt Solution=HBSS), but without Ca^++ and Mg^++ ions and with 0.2% by weight of sodium citrate, were then injected into the abdominal cavity. The suspension of accumulated cells was removed from the abdominal cavity and the cells were separated by centrifugation (10 minutes at 400×g). The cells were purified by repeated centrifugation in the presence of Ficoll-Paque®, (=metrizoic acid preparation, […], manufacturer Pharmacia), then washed twice with HBSS containing Ca^++ and Mg^++ ions and resuspended in HBSS containing Ca^ ++ and Mg^++ ions and buffered with 10 mM HEPES (=hydroxyethylpiperazinoethanesulfonic acid). In order to carry out the tests, samples of 0.7 ml of the PMN suspension (=0.5×10^6 cells) in each case were incubated for 15 minutes at 22° C. in plastic tubes containing 10 μM of the test substance in dimethylformamide or, as a control experiment, only containing dimethylformamide. The LTB4 synthesis was initiated in the samples by addition of calcimycin (final concentration 5 μm), and the samples were incubated for 10 minutes at 22° C. Only solvent was added to blank control samples. After 10 minutes, the reaction was terminated by addition of 0.3 ml of cold methanol. The samples were kept for 1 hour at 4° C. and then centrifuged (5 minutes at 10,000×g). The supernatant liquid was investigated to determine its LTB4 content by means of reverse phase high-pressure liquid chromatography (=reverse phase HPLC). […] The LTB4 was identified by comparison with authentic standard solutions eluting at the same time and determined at a wavelength of 270 nm. The LTB4 contents are determined from comparison with calibrated standard solutions, and from this the inhibitory activity of the test substances was calculated in % inhibition of the LTB4 synthesis in comparison with the control samples containing no test substance.

[3] = test system: cutaneous histamine induced anaphylactoid reactions; test: inhibition of the anaphylactoid cutaneous reaction induced by histamine; assay type: in vivo, Sprague-Dawley rats; settings: Rattus norvegicus, po, 0.5 h; 2 × 10^-5 mole/kg p.o., one hour before histamine; assessed 30 minutes after provocation; read-out: Inhibitory action against cutaneous histamine induced anaphylactoid reactions in rats, % inhibition
Procedure: 1. Determination of the inhibition of the anaphylactoid cutaneous reaction induced by histamine.
The inhibition of the anaphylactoid cutaneous reaction induced by histamine was determined in Sprague-Dawley rats having body weights of 150-180 g.
In order to determine the histamine-induced anaphylactoid skin reaction, 50 μl of a physiological saline solution containing 0.8 mg/ml of histamine were injected into the animals intradermally on one flank. Immediately afterward, a solution of 26.4 mg/kg of a blue dye (Evan's Blue) was administered i.v. to the animals.
The test substances were dissolved in distilled water which contains 1% by volume of dimethylformamide and 1% by volume of Tween®20 (=polyoxyethylene(20) sorbitan monolaurate). One hour before the histamine injection, each animal received 2×10^-5 mol/kg of test substance, in each case administered orally in 0.5 ml of solution. A control group received only the solvent for comparison.
The histamine-induced anaphylactoid reactions which manifested themselves by edema formation, swelling and exudation of blue dye are assessed 30 minutes after provocation by the histamine injection. This is carried out by visual determination of the extent of the exudation of blue dye at the sites of edema formation. With the aid of comparison scales, the percentage inhibition of the anaphylactoid reactions produced by the test substances is determined in comparison with the reactions of the control animals not treated with test substance.
The results obtained with compounds of the formula I by the above test method are reproduced in the following table A. The example numbers given as identifiers for the compounds of formula I refer to the subsequent preparative examples.

5-lipoxygenase [4] = biological target: T1, 5-lipoxygenase (Homo sapiens, UniProt P09917); test: 5-lipoxygenase inhibition in human blood (LTB4 formation); assay type: cell-based; settings: 0.5 h; 10^-5 mole/liter; human whole blood, 37° C.; read-out: In vitro % inhibitory activity on LTB4 formation in human blood stimulated by calcimycin
T1 construct: the 5-LO activity in human whole blood; from tissue; host or cells: heparinized human whole blood
T1 sequence (P09917 1-674): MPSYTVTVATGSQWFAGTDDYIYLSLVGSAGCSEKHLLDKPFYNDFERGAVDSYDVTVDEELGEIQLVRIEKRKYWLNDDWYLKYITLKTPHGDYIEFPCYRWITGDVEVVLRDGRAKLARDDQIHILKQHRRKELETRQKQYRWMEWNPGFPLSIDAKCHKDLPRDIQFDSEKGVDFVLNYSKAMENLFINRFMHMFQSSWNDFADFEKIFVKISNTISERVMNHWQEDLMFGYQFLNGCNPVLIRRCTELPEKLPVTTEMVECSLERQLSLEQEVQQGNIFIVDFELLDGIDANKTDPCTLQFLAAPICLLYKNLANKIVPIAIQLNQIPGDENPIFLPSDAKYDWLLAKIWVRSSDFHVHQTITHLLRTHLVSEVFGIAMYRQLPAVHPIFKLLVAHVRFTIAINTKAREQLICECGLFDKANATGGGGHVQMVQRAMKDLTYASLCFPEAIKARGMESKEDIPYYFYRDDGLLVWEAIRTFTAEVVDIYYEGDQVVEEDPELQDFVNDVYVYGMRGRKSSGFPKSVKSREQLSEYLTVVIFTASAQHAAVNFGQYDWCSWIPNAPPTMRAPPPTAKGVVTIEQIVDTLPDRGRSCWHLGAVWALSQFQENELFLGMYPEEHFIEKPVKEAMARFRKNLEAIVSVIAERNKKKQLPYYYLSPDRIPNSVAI
Procedure: 4c. In vitro determination of 5-lipoxygenase inhibition in human blood.
The inhibitory activity of the test substances on the 5-LO activity in human whole blood taking place after stimulation by calcimycin is investigated according to the method described by P. Gresele et al. (Biochem. Biophys. Commun. 137 (1986), 334).
For carrying out the test, human blood is collected in sterile 50 ml test tubes which contain 10 units of heparin/ml of blood and incubated for 5-10 minutes at 37° C. Amounts of test substance, dissolved in 10 μl of dimethylformamide, are added to 2 ml samples of this blood such that a final concentration of test substance of 10 μmol/l is achieved in the samples. Only 10 μl of the solvent were added to control samples. The samples were then incubated for 10 minutes at 37° C. In order to stimulate LTB4 synthesis, an amount of calcimycin, dissolved in 200 μl of plasma, was added to the samples such that a calcimycin concentration of 60 μmol/l was achieved, and the samples were incubated for a further 30 minutes at 37° C. The reaction was then terminated by addition of 200 μl of an ethylene glycol tetraacetate solution (corresponding to an ethylene glycol acetate concentration in the sample of 100 mmol/l). The samples are kept in an ice-bath for 10 minutes and then centrifuged (5 minutes at 1000×g). The supernantant liquids, which contain the LTB4 formed during the reaction time, are each separated and, for precipitation of the proteins contained therein, mixed with 3 ml of acetone and kept for 45 minutes at 4° C. Then the samples are centrifuged again (5 minutes at 1500×g), the supernatant liquids are separated, and the content of LTB4 therein is determined in a known manner by means of an enzyme immunoassay (=EIA). From the measured LTB4 values, the inhibitory activity of the test substances in human whole blood was calculated in % inhibition of LTB4 synthesis in comparison to the control samples containing no test substance.

With `COc1ccc(-c2c(C)c3cccc4c3n2CC(CN2CCN(c3cc(C)ccn3)CC2)O4)cc1` (centres unmarked) [Example 5, 2,3-Dihydro-5-(4-methoxyphenyl)-6-methyl-2-[4-(4-methylpyridin-2-yl)piperazin-1-ylmethyl]pyrrolo[1,2,3-de]-1,4-benzoxazine] the inhibition at 10 µM [1] was 100% and the Minimum toxic dose (male mice) was greater than 300 mg/kg.

For `Cc1ccc(N2CCN(CCC3Cn4c(-c5ccc(O)cc5)c(C)c5cccc(c54)O3)CC2)nc1` (centres unmarked) [Example 31], the “In vitro inhibitory activity on LTB4 formation in rat PMNs stimulated by calcium ionophore A23187” value (5-lipoxygenase [2]) was 81%, the inhibition in vivo at 20 µmol/kg [3] was 58% and the inhibition at 10 µM [1] was 52%.

In the case of `Cc1cccnc1N1CCN(CCC2Cn3c(-c4ccc(O)cc4)c(C)c4cccc(c43)O2)CC1` (centres unmarked) [Example 32], the “In vitro inhibitory activity on LTB4 formation in rat PMNs stimulated by calcium ionophore A23187” value (5-lipoxygenase [2]) is reported as 98%, the inhibition in vivo at 20 µmol/kg [3] is reported as 57% and the inhibition at 10 µM [1] is reported as 79%.

With `Cc1c(-c2ccc(O)cc2)n2c3c(cccc13)OC(CCN1CCN(c3ccccn3)CC1)C2` (centres unmarked) [Example 30] the “In vitro inhibitory activity on LTB4 formation in rat PMNs stimulated by calcium ionophore A23187” value (5-lipoxygenase [2]) was 100%, the inhibition in vivo at 20 µmol/kg [3] was 47% and the inhibition at 10 µM [1] was 69%.

In the case of `Cc1cccnc1N1CCN(CCCC2Cn3c(-c4ccc(O)cc4)c(C)c4cccc(c43)O2)CC1` (centres unmarked) [Example 41], the “In vitro inhibitory activity on LTB4 formation in rat PMNs stimulated by calcium ionophore A23187” value (5-lipoxygenase [2]) is reported as 84%, the inhibition at 10 µM (5-lipoxygenase [4]) is reported as 100% and the inhibition in vivo at 20 µmol/kg [3] is reported as 60%.

`Cc1cccc(N2CCN(CCC3Cn4c(-c5ccc(O)cc5)c(C)c5cccc(c54)O3)CC2)n1` (centres unmarked) [Example 33] was tested, and the “In vitro inhibitory activity on LTB4 formation in rat PMNs stimulated by calcium ionophore A23187” value (5-lipoxygenase [2]) was 90%, the inhibition in vivo at 20 µmol/kg [3] was 39% and the inhibition at 10 µM [1] was 43%.
